30 compounds from ChEMBL document CHEMBL4834422, “New Tyramine- and Aporphine-Type Alkamides with NO Release Inhibitory Activities from Piper puberulum” (J Nat Prod, 2021) can be followed below.

By IC50 is commonly meant the concentration at which inhibition is half-maximal.

Where only a bound is given, the exact number is not on record here.

For series [1], the system named is BV-2. Nature of the series: Antineuroinflammatory activity against mouse BV2 cells assessed as inhibition of LPS-induced NO production incubated for 20 hrs by Griess assay. It counts as functional, cell-based. The settings on record: BV-2, 20 h.
For series [2], the system named is BV-2. The series can be described thus: Cytotoxicity against mouse BV2 cells assessed as reduction in cell viability at 1 to 25 uM after 24 hrs by MTT assay. Type of series: cell-based. The settings on record: bv-2, 24 h, dose 1-25 µM. In general terms: Tetrazolium assays rely on reduction of a dye to a coloured formazan, in cell work by metabolically active cells.

On to `COc1cc(/C=C/C(=O)NCCc2ccc(O)c(OC)c2)ccc1O`, for which the IC50 with BV-2 [1] is more than 50 µM.

For `COc1cc(/C=C\C(=O)NCCc2ccc(O)cc2)ccc1O`, in the series on BV-2 [2], the Activity entry is listed as “Non-Toxic”. Also, the IC50 in the series with BV-2 [1] amounted to 22 µM.

For `COc1c(O)cc2c3c1-c1ccccc1[C@H](O)[C@H]3N(C(C)=O)CC2`, the IC50 in the series on BV-2 [1] is more than 50 µM.

For `COc1cc(/C=C\C(=O)NCCc2ccc(O)cc2)cc(OC)c1O`, the IC50 in the series on BV-2 [1] was more than 50 µM.

Consider `NC(=O)c1cn(CCc2ccc(O)cc2)c(=O)c2c(O)ccc(O)c12`, for which the IC50 with BV-2 [1] is more than 50 µM.

For the compound `COc1ccc(O)c(C(=O)NCCc2ccc(O)cc2)c1`, in the series on BV-2 [1], the IC50 was more than 50 µM.

For `COc1c2c3c(c4c1OCO4)-c1ccccc1[C@H](O)[C@H]3N(C(C)=O)CC2`, the Activity result in the series with BV-2 [2] was “Non-Toxic”. Also, the IC50 with BV-2 [1] came out at 16 µM.

For the compound `COc1cccc(/C=C/C(=O)N2CCCC2)c1`, in the series on BV-2 [1], the 50% inhibitory concentration (IC50) was more than 50 µM.

With `COc1cc2c3c(c1OC)-c1ccccc1[C@H](O)[C@H]3N(C(C)=O)CC2`, the concentration for half-maximal inhibition (IC50) in the series on BV-2 [1] was more than 50 µM.

`COc1ccc(CCNC(=O)c2cc(O)ccc2O)cc1`: the Activity entry with BV-2 [2] is “Non-Toxic”. For the same compound, in the series on BV-2 [1], the IC50 came out at 7 µM.

Regarding `COc1c(O)c(OC)c2c3c1CCN(C(C)=O)[C@@H]3[C@@H](O)c1ccccc1-2`, the IC50 in the series with BV-2 [1] is more than 50 µM.

Consider `COc1cc([C@H]2c3c(cc(OC)c(O)c3OC)C=C(C(=O)NCCc3ccc(O)cc3)[C@@H]2C(=O)NCCc2ccc(O)cc2)cc(OC)c1O`, for which the IC50 in the series on BV-2 [1] is more than 50 µM.

For `COc1c2c3c(c(OC)c1OC)-c1ccccc1[C@H](O)[C@H]3N(C(C)=O)CC2`, the IC50 in the series with BV-2 [1] was more than 50 µM.

For the compound `O=CN1CCc2cc3c(c4c2[C@H]1[C@@H](O)c1ccccc1-4)OCO3`, in the series on BV-2 [2], the Activity result is given as “Non-Toxic”. The IC50 with BV-2 [1] turned out to be 6.8 µM.

Turning to `CC(=O)N1CCc2cc3c(c4c2[C@H]1[C@@H](O)c1ccccc1-4)OCO3`, in the series on BV-2 [2], the Activity entry is listed as “Non-Toxic”. Besides, the IC50 in the series with BV-2 [1] came out at 9 µM.

Turning to `COc1ccc(O)c(C(=O)NCCc2ccc(O)c(OC)c2)c1`, the Activity entry in the series on BV-2 [2] is recorded as “Non-Toxic”. Also, the half-inhibitory concentration (IC50) with BV-2 [1] turned out to be 26 µM.

For `COc1ccc(CCNC(=O)c2c(O)ccc(O)c2OC)cc1`, the Activity result in the series with BV-2 [2] was “Non-Toxic”. The IC50 in the series on BV-2 [1] was found to be 1.4 µM.

For `COc1c(OC)c(OC)c2c3c(cc4ccccc42)NC(=O)c13`, the Activity result in the series on BV-2 [2] is recorded as “Non-Toxic”. In the series on BV-2 [1], the 50% inhibitory concentration (IC50) was determined as 12 µM.

As to `COc1ccc(CCNC(=O)c2cc(OC)ccc2O)cc1`, in the series with BV-2 [1], the IC50 was more than 50 µM.

In the case of `COc1ccc(OC)c(C(=O)NCCc2ccc(O)c(OC)c2)c1`, the IC50 with BV-2 [1] is more than 50 µM.

As for `O=C(NCCc1ccc(O)cc1)c1ccc(O)c(O)c1`, the Activity result with BV-2 [2] is reported as “Non-Toxic”. Also, the IC50 with BV-2 [1] amounted to 21 µM.

As to `COc1cc2c3c(cc4ccccc4c3c1OC)NC2=O` [CEPHARANONE B], in the series with BV-2 [1], the IC50 is more than 50 µM.

Take `O=C1c2ccccc2-c2c3c(cc4ccnc1c24)OCO3` [LIRIODENINE]: the Activity result in the series on BV-2 [2] is “Non-Toxic”. Besides, in the series on BV-2 [1], the IC50 came to 5 µM.

Take `CN(C)c1ccc(O)c2c1C[C@H]1C[C@H]3[C@H](N(C)C)C(O)=C(C(N)=O)C(=O)[C@@]3(O)C(O)=C1C2=O` [MINOCYCLINE]: the IC50 with BV-2 [1] amounted to 15 µM.

As to `O=C(/C=C/c1ccc(O)cc1)NCCc1ccc(O)cc1` [N-P-COUMAROYL TYRAMINE], the Activity entry in the series with BV-2 [2] is “Non-Toxic”. In the series with BV-2 [1], the IC50 was found to be 2.2 µM.

Regarding `COc1cc(/C=C/C(=O)NCCc2ccc(O)cc2)ccc1O` [N-TRANS-FERULOYL TYRAMINE], in the series on BV-2 [2], the Activity result is recorded as “Non-Toxic”. In addition, in the series with BV-2 [1], the IC50 came to 18 µM.

Take `COc1cc2c3c(cc4ccccc4c3c1OC)NC(=O)C2=O` [NORCEPHARADIONE]: the Activity result in the series on BV-2 [2] is recorded as “Non-Toxic”. The IC50 in the series with BV-2 [1] came out at 37 µM.

Regarding `CCCCC/C=C/C=C/C(=O)NCC(C)C` [PELLITORIN], in the series on BV-2 [2], the Activity entry is “Non-Toxic”. Moreover, in the series on BV-2 [1], the IC50 was determined as 45 µM.

`COc1cc2c3c(cc4ccccc4c3c1O)NC2=O` [PIPEROLACTAM A]: in the series on BV-2 [1], the IC50 was more than 50 µM.

For `COc1cc(/C=C/C(=O)NCCc2ccc(O)cc2)cc(OC)c1O` [TRANS-N-SINAPOYLTYRAMINE], the IC50 with BV-2 [1] is more than 50 µM.
